Here are results for 13 compounds from PubChem BioAssay AID1845195 (Molecular Pharmacology Branch, DTP, NCI, 2023).

Values joined by “and” are separate entries in the source; they are usually repeats but may differ in a detail not shown here. Equal values may be shown once.

The subject of the test is 156681-154-R-J1 tumor spheroid viability. The test can be described thus: Anticancer human tumor 156681-154-R-J1 patient-derived melanoma cell line growth inhibition. The following applies: spheroids with HUVEC and MSC; for viability, T/C: stronger effect = lower value. From the text: Multicellular complex tumor spheroid response to DNA repair inhibitors in combination with DNA-damaging drugs
This study explores the anticancer activities of DNA-damaging drugs and inhibitors of DNA damage repair, both as single agents and in combinations. Complex tumor spheroids comprised of malignant cells, endothelial cells and mesenchymal stem cells served as an in vitro model for human solid tumors. This model system incorporates physiologically relevant features and patient-derived or established malignant cell lines with clinically relevant genetic alterations from many tumor types. Twenty-six patient-derived or established malignant cell lines were evaluated representing sarcoma, melanoma, small cell lung cancer (SCLC), non-small cell lung cancer (NSCLC), as well as bladder, ovarian and pancreatic cancers. The concentration ranges selected for each drug and investigational agent were based upon clinically achievable concentrations if the clinical Cmax of the agent was known.
Compounds. The drugs and compounds olaparib (NSC753686), talazoparib (NSC767125), berzosertib (NSC777718), elimusertib (NSC800525), nedisertib (NSC802822), VX-984 (NSC792969), AZD-1390 (NSC803789), temozolomide (NSC362856), topotecan (NSC609699), trabectedin (NSC813783), staurosporine (NSC755774), and gemcitabine (NSC613327) were obtained from the National Cancer Institute (NCI) Developmental Therapeutics Program Chemical Repository. The FDA-approved anticancer drug set is available from the Developmental Therapeutics Program at https://dtp.cancer.gov/organization/dscb/obtaining/available_plates.htm. […] The stock solutions were prepared in dimethyl sulfoxide (DMSO, Sigma-Aldrich, St. Louis, MO, cat. D2650) at 400-fold the tested concentration and stored at -70 degrees C. Prior to their use, the stock solutions were diluted in fresh medium and the final DMSO concentration in the assay was 0.25% (v/v). All drugs and investigational agents were tested over a range starting from a high concentration at or near the clinical Cmax and decreasing in half-log increments. If the clinical Cmax for an agent had not been determined, the highest concentration tested was 10 microM.
Cell Lines. The patient-derived cancer cell (PDC) lines: 156681-154-R-J1-PDC, 283228-195-R-J1-PDC, 287954-098-R-J1-PDC, 292921-168-R-J2-PDC, 349418-098-R-PDC, 425362-245-T-J1-PDC, 556581-035-R-J1-PDC, and BL0293-F563-PDC were received from the NCI Patient-Derived Models Repository (PDMR, https://pdmr.cancer.gov). The established cell lines HS-SY-2 (RRID:CVCL_8719), MPNST, and SYO-1 (RRID:CVCL_7146) were obtained from the Sloan Kettering Institute. The alveolar soft parts sarcoma cell line ASPS-1 (RRID:CVCL_S738) was established at the NCI and grown from internal seed stocks. The following established cell lines were purchased from the American Type Culture Collection (ATCC, Manassas, VA): G-401 (ATCC, cat. CRL-1441, RRID:CVCL_0270), SW982 (ATCC, cat. HTB-93, RRID:CVCL_1734), VA-ES-BJ (ATCC, cat. CRL-2138, RRID:CVCL_1785), NCI-H719 (ATCC, cat. CRL-5837, RRID:CVCL_1582), NCI-H196 (ATCC, cat. CRL-5823, RRID:CVCL_1509), NCI-H841 (ATCC, cat. CRL-5845, RRID:CVCL_1595), NCI-H1618 (ATCC, cat. CRL-5879, RRID:CVCL_1480), NCI-H1876 (ATCC, cat. CRL-5902, RRID:CVCL_1503), DMS 114 (ATCC, cat. CRL-2066; RRID:CVCL_1174), NCI-H211 (ATCC, cat. CRL-5824; RRID:CVCL_1529), and SW 1271 (ATCC, cat. CRL-2177, RRID:CVCL_1716). The small cell lung cancer cell line COR-L88 was purchased from Sigma-Aldrich (cat. 92031917-1VL, RRID:CVCL_1141). The non-small cell lung cancer cell lines NCI-H226 (RRID:CVCL_1544) and NCI-H322M (RRID:CVCL_1557) were established at the NCI and grown from internal seed stocks. Pooled donor human umbilical vein endothelial cells (HUVEC, Lonza, cat. CC-2519) and human mesenchymal stem cells (hMSC, Lonza, cat. PT-2501) were purchased from Lonza (Walkersville, MD).
Cell Culture. All cells were maintained in an incubator at 37 degrees C and 5% CO2 with 95% humidity. […]

Where [1] appears, read: compound alone, run of 10/17/2019.
Where [2] appears, read: compound alone, run of 10/25/2019.

As usually defined, the viability, T/C is the ratio of treated to control. For orientation: IC50 means the concentration that gives 50% inhibition.
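Note: spheroids exposed to compounds for 7 days before readout.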
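Throughout, for viability, T/C: percent of vehicle control viability where 100% = DMSO-treated spheroids.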

Take `CC(C)n1c(=O)n(C)c2cnc3cc(F)c(-c4ccc(OCCCN5CCCCC5)nc4)cc3c21`: the viability, T/C (compound 0.0316 µM) is 106% and 92.3% and 88.9%; the viability, T/C (compound 0.1 µM) is 101% (2×) and 102%; the viability, T/C (compound 0.316 µM) was 97.7% and 98.2% and 112%; the viability, T/C (compound 1 µM) is 100% and 106% and 96.7%; the viability, T/C (compound 3.16 µM) was 98.3% and 109% (2×); the viability, T/C (compound 10 µM) was 78.9% and 100% and 96.5%. Further, under “curve of compound”, the IC50 was > 10000 nM.

For `CC1COCCN1c1cc(-c2ccnn2C)c2ccnc(-c3ccn[nH]3)c2n1` (centres undefined), the viability, T/C runs as follows: (compound 0.0316 µM) 83.8% and 68.1% and 84.5%; (compound 0.1 µM) 77.6% and 66% and 75.6%; (compound 0.316 µM) 37.2% and 34.3% and 47.2%; (compound 1 µM) 30.1% and 21.7% and 29.9%; (compound 3.16 µM) 31.1% and 24.6% and 29.9%; (compound 10 µM) 25.2% and 20.8% and 22.6%. The IC50 (curve of compound) is 220 nM and 179 nM and 286 nM.

Take `CC[C@@]1(O)C(=O)OCc2c1cc1n(c2=O)Cc2cc3c(CN(C)C)c(O)ccc3nc2-1`: the viability, T/C reads like this: (compound 0.00949 µM) 85.4% [middle of 10 runs]; (compound 0.0949 µM) 22.1% [middle of 10 runs]; (compound 0.3 µM) 31.3% [middle of 10 runs]. In addition, the IC50 under setting [1] is 39.5 nM [middle of 5 runs] and the IC50 under setting [2] was 45.2 nM [middle of 5 runs].

For `CNCc1ccc(-c2cc(-c3nc(-c4ccc(S(=O)(=O)C(C)C)cc4)cnc3N)on2)cc1`, the viability, T/C is 96.4% and 93.6% and 109% (compound 0.00949 µM); 103% and 118% and 115% (compound 0.03 µM); 95.8% and 90.1% and 96.7% (compound 0.0949 µM); 89% and 71.3% and 84.3% (compound 0.3 µM); 59.4% and 53.5% and 57.1% (compound 0.949 µM); 24.5% and 15.9% and 19.6% (compound 3 µM). In addition, where the note is “curve of compound”, the IC50 is 1290 nM and 931 nM and 1170 nM.

With `COc1cc(C)[nH]c(=O)c1CN1CCc2c(Cl)cc(C(OC)C3COC3)c(Cl)c2C1=O` (centres undefined), the viability, T/C runs as follows: (compound 0.0316 µM) 84.3% and 79.3% and 103%; (compound 0.1 µM) 96.4% and 99.4% and 110%; (compound 0.316 µM) 99% and 102% and 105%; (compound 1 µM) 91.7% and 88.1% and 112%; (compound 3.16 µM) 86% and 95.8% and 122%; (compound 10 µM) 107% and 93% and 118%. Where the note is “curve of compound”, the IC50 was > 10000 nM.

On to `COc1cc2c(cc1O)CCNC21CSC2c3c(OC(C)=O)c(C)c4c(c3C(COC1=O)N1C(O)C3Cc5cc(C)c(OC)c(O)c5C(C21)N3C)OCO4` (centres undefined), for which the viability, T/C is 95.8% [middle of 10 runs] (compound 30 pM); 101% [middle of 10 runs] (compound 94.9 pM); 80.7% [middle of 10 runs] (compound 0.0003 µM); 4.41% [middle of 10 runs] (compound 0.000949 µM); 0.17% [middle of 9 runs] (compound 0.003 µM). Moreover, under setting [2], the IC50 is 0.477 nM [middle of 10 runs].

As to `COc1ccc([C@@H](O)c2cc(-c3ncnc4cc(N5CCOCC5)ccc34)c(F)cc2Cl)nn1`, the viability, T/C runs as follows: (compound 0.0316 µM) 95.2% and 80.1% and 80.3%; (compound 0.1 µM) 99.7% and 89.8% and 88%; (compound 0.316 µM) 88% and 84.6% and 86.1%; (compound 1 µM) 71.3% and 63.9% and 76.9%; (compound 3.16 µM) 59.8% and 60.9% and 55.3%; (compound 10 µM) 46.2% and 62.8% and 43.4%. For the same compound, the IC50 (curve of compound) was 7330 nM and > 10000 nM and 5220 nM.

Consider `Cc1cc(C)c(CNC(=O)c2cc(-c3ccc(CN4CCOCC4)cc3)cc3c2cnn3C2CCCC2)c(=O)[nH]1`, for which the viability, T/C is, setting by setting: (compound 0.0316 µM) 80.8% and 92.1% and 108%; (compound 0.1 µM) 101% and 82.4% and 85.2%; (compound 0.316 µM) 85.4% and 99.5% and 97.3%; (compound 1 µM) 97.1% and 73% and 93.2%; (compound 3.16 µM) 90.4% and 89.8% and 92.5%; (compound 10 µM) 90% and 87.1% and 91.1%. For the same compound, the IC50 (curve of compound) was > 10000 nM.

With `Cc1sc2c(c1C)C(c1ccc(Cl)cc1)=NC(CC(=O)Nc1ccc(O)cc1)c1nnc(C)n1-2` (centres undefined), the viability, T/C was 77.1% and 103% and 87% (compound 0.00949 µM); 89.1% and 92% and 94.1% (compound 0.03 µM); 83.7% and 95.2% and 98% (compound 0.0949 µM); 70% and 80.3% and 96.3% (compound 0.3 µM); 70.8% and 58.4% and 64.4% (compound 0.949 µM); 38.2% and 42.2% and 73% (compound 3 µM). For the same compound, the IC50 (curve of compound) was 1920 nM and 1730 nM and > 3000 nM.

Take `Cn1ncnc1[C@H]1c2n[nH]c(=O)c3cc(F)cc(c23)N[C@@H]1c1ccc(F)cc1`: the viability, T/C was 69.9% and 99.2% and 102% (compound 0.00949 µM); 71.1% and 90.5% and 84.6% (compound 0.03 µM); 79.2% and 71.3% and 86.4% (compound 0.0949 µM); 71.5% and 69% and 85.9% (compound 0.3 µM); 67.1% and 59.8% and 73.4% (compound 0.949 µM); 8.93% and 21.2% and 16.4% (compound 3 µM). Also, the IC50 (curve of compound) was 1330 nM and 993 nM and 1500 nM.

On to `Cn1nnc2c(C(N)=O)ncn2c1=O`, for which the viability, T/C runs as follows: (compound 1 µM) 90.8% [middle of 10 runs]; (compound 31.6 µM) 57.1% [middle of 10 runs]. Under setting [1], the IC50 was 81000 nM and > 100000 nM and 72600 nM.

Regarding `O=C(c1cc(Cc2n[nH]c(=O)c3ccccc23)ccc1F)N1CCN(C(=O)C2CC2)CC1`, the viability, T/C (compound 0.0949 µM) was 84% and 87.4% and 95%; the viability, T/C (compound 0.3 µM) is 82.5% and 83.7% and 107%; the viability, T/C (compound 0.949 µM) is 103% and 85.3% and 77.8%; the viability, T/C (compound 3 µM) is 64.4% and 72.5% and 82.7%; the viability, T/C (compound 9.49 µM) is 62.2% and 60.3% and 65.8%; the viability, T/C (compound 30 µM) is 50.7% and 52.9% and 63.1%. Under “curve of compound”, the IC50 is > 30000 nM.

For `[2H]c1nc(C)nc([2H])c1-c1cc(NC[C@@H](C)c2cccc3c(C(=O)NC)ccnc23)ncn1`, the viability, T/C was 84.5% and 81.3% and 110% (compound 0.0316 µM); 98.4% and 80% and 94.7% (compound 0.1 µM); 91.8% and 92.6% and 92.1% (compound 0.316 µM); 86.1% and 87.3% and 89.5% (compound 1 µM); 91.8% and 77.7% and 88.6% (compound 3.16 µM); 86.8% and 70% and 99.2% (compound 10 µM). Moreover, where the note is “curve of compound”, the IC50 was > 10000 nM.
